In one assay the target is T1, TRKC (Homo sapiens, UniProt Q16288).
T1 construct: purchased DiscoverX (KINOMEscan)
The assay can be described thus: KINOMEscan competitive binding. Conditions: n=1, read-out: Percent inhibition, TRKC.

Another assay concerns the target T2, SNF1LK2 (Homo sapiens, UniProt Q9H0K1).
T2 construct: purchased DiscoverX (KINOMEscan)
The assay is described as follows: KINOMEscan competitive binding. The conditions noted are these: n=1, read-out: Percent inhibition, SNF1LK2.

In a further assay the target is T3, PAK4 (Homo sapiens, UniProt O96013).
T3 construct: purchased DiscoverX (KINOMEscan)
The assay can be described thus: KINOMEscan competitive binding. Conditions: n=1, read-out: Percent inhibition, PAK4.

For a further assay, the target named is T4, ULK3(mouse) (Mus musculus, UniProt Q3U3Q1).
T4 construct: purchased DiscoverX (KINOMEscan)
T4 sequence (Q3U3Q1 1-472): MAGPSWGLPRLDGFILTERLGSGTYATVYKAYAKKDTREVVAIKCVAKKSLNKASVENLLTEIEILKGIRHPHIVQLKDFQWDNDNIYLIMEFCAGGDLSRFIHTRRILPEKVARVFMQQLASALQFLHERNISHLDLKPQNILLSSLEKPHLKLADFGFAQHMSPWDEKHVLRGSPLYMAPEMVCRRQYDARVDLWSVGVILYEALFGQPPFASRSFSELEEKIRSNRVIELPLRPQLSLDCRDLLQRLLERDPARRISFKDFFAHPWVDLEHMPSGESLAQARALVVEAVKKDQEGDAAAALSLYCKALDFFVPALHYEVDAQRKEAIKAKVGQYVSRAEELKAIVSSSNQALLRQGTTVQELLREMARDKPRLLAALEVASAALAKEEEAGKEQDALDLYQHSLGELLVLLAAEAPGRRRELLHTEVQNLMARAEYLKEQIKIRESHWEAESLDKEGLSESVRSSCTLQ
The assay can be described thus: KINOMEscan competitive binding. Conditions: n=1, read-out: Percent inhibition, ULK3(mouse).

The next assay addresses T5, PIM2 (Homo sapiens, UniProt Q9P1W9).
T5 construct: purchased DiscoverX (KINOMEscan)
The assay can be described thus: KINOMEscan competitive binding. Conditions: n=1, read-out: Percent inhibition, PIM2.

In the next assay the target is T6, YANK2 (Homo sapiens, UniProt Q9NY57).
T6 construct: purchased DiscoverX (KINOMEscan)
The assay can be described thus: KINOMEscan competitive binding. Conditions: n=1, read-out: Percent inhibition, YANK2.

The next assay has as its target T7, JAK kinase domains (Homo sapiens, UniProt O60674).
T7 construct: purchased DiscoverX (KINOMEscan)
The assay is described as follows: KINOMEscan competitive binding. Conditions: 10 µM, n=1; kinase JAK2(Kin.Dom.2); read-out: Percent inhibition JAK2(Kin.Dom.2). An excerpt:
(§1) The kinases were expressed as fusions to T7 bacteriophage. This is a sensitive, competitive binding assay where test compounds were used to displace immobilized ATP-site binding probe ligands from kinases of interest. The amount of kinase that remained bound to the immobilized probe ligands on the solid support was quantified. Percentage inhibition data were was plotted on kinome trees using the web-based tool KinMap (http://www.kinhub.org/kinmap) ([60]).

The target in assay [1] is T8, panel of 203 kinases (Homo sapiens, UniProt P19784).
T8 construct: purchased DiscoverX (KINOMEscan)
The assay is described as follows: KINOMEscan competitive binding, whole panel. Conditions: 10 µM, n=1; kinase CSNK2A2; read-out: Percent inhibition CSNK2A2.
Description: as §1

For assay [2], the target named is T9, panel of 203 kinases (Homo sapiens, UniProt Q7KZI7).
T9 construct: purchased DiscoverX (KINOMEscan)
The assay can be described thus: KINOMEscan competitive binding, whole panel. Conditions: 10 µM, n=1; kinase MARK2; read-out: Percent inhibition MARK2.
Description: as §1

The target of assay [3] is T10, panel of 203 kinases (Homo sapiens, UniProt P53667).
T10 construct: purchased DiscoverX (KINOMEscan)
The assay is described as follows: KINOMEscan competitive binding, whole panel. Conditions: 10 µM, n=1; kinase LIMK1; read-out: Percent inhibition LIMK1.
Description: as §1

Another assay deals with T11, TRKB (Homo sapiens, UniProt Q16620).
T11 construct: purchased DiscoverX (KINOMEscan)
The assay is described as follows: KINOMEscan competitive binding. Conditions: n=1, read-out: Percent inhibition, TRKB.

For the next assay, the target named is T12, PAK6 (Homo sapiens, UniProt Q9NQU5).
T12 construct: purchased DiscoverX (KINOMEscan)
The assay is described as follows: KINOMEscan competitive binding. The conditions noted are these: n=1, read-out: Percent inhibition, PAK6.

The target of the next assay is T13, SRC (Homo sapiens, UniProt P12931).
T13 construct: purchased DiscoverX (KINOMEscan)
The assay is described as follows: KINOMEscan competitive binding. The conditions noted are these: n=1, read-out: Percent inhibition, SRC.

A further assay has as its target T14, STK16 (Homo sapiens, UniProt O75716).
T14 construct: purchased DiscoverX (KINOMEscan)
The assay is described as follows: KINOMEscan competitive binding. The conditions noted are these: n=1, read-out: Percent inhibition, STK16.

The target of a further assay is T15, PLK4 (Homo sapiens, UniProt O00444).
T15 construct: purchased DiscoverX (KINOMEscan)
T15 sequence (O00444 1-970): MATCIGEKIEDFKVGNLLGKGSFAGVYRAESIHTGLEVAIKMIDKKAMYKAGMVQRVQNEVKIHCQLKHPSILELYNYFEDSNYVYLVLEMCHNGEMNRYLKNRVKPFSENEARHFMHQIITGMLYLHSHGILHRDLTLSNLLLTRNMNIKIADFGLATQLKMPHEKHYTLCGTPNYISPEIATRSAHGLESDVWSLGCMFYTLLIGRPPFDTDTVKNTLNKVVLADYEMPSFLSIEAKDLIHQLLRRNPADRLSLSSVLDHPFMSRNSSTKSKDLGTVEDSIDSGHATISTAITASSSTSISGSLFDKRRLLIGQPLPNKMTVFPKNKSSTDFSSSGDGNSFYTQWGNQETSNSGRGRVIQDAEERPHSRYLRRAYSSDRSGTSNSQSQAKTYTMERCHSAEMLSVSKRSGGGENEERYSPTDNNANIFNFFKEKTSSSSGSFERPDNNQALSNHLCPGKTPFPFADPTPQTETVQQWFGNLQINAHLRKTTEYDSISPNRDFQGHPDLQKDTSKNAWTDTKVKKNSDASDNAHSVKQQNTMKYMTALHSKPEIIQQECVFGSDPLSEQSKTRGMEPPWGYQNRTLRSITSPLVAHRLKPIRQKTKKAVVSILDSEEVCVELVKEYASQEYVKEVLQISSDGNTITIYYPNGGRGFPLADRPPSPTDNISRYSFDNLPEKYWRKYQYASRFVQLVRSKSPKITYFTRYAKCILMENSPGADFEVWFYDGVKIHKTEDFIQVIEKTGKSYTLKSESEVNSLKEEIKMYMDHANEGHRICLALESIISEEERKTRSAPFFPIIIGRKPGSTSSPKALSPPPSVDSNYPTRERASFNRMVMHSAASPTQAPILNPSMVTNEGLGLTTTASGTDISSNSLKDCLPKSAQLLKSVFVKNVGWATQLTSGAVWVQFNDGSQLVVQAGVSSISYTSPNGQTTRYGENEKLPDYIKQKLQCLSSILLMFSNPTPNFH
The assay is described as follows: KINOMEscan competitive binding. Conditions: n=1, read-out: Percent inhibition, PLK4.

Structures are written as SMILES.

As a reminder, the inhibition is the percentage by which the read-out fell short of the control. For `Clc1ccc(Nc2ncc(-c3ccccc3)s2)cc1` [Compound 10], the inhibition at 10 µM on TRKC, at SNF1LK2, at PAK4, at ULK3(mouse), on PIM2 and at YANK2 was 0% throughout. In addition, the inhibition at 10 µM on JAK kinase domains, on panel of 203 kinases [1], at panel of 203 kinases [2], at panel of 203 kinases [3], on TRKB and on PAK6 was 0% each time. Moreover, the inhibition at 10 µM on SRC, on STK16 and on PLK4 was 0% in each case.

As to `Nc1ncc2c(-c3ccncc3)c[nH]c2n1` [Compound 11], the inhibition at 10 µM at TRKC was 0%; on SNF1LK2 it was 0%; on PAK4 it was 0%; on ULK3(mouse), 91.7%; at PIM2 it was 0%; at YANK2, 0%. For the same compound, the inhibition at 10 µM on JAK kinase domains, on panel of 203 kinases [1], at panel of 203 kinases [2], at panel of 203 kinases [3], on TRKB and at PAK6 was 0% each time. Further, the inhibition at 10 µM on SRC worked out at 93.3%; on STK16, 0%; on PLK4 it was 84.4%.

Source of the values: publication PMC9927415, “Tyrosine Kinase Inhibitors Display Potent Activity against Cryptosporidium parvum” (Microbiology Spectrum, 2022).
